Laboratory results taken from patent US20080288176A1 (priority 2005, published 2008).

Columns and labels:
[1] = Hydrolysis in human intestinal microsomes; format: in vitro ADME; details: for intestinal microsomal activity: model input
Source text: (§1) The physiologically based pharmacokinetic/pharmacodynamic model of the present invention contains a series of compartments that describe the time course of a nonsteroidal anti-inflammatory prodrug, its active metabolites and nitric oxide release in intestine, liver, kidneys, blood/plasma and heart after prodrug administration. The time course of the prodrug, its active metabolites and nitric oxide release can be simulated using a series of in vitro and in silico inputs. The stability of each component in the gastrointestinal lumen is estimated using data collected from artificial gastric and intestinal juice. Intestinal metabolism is estimated using intestinal microsomes and absorption rate is estimated using permeability data collected from a cell monolayer such as Caco-2. Hepatic elimination is estimated using liver microsomes and stability in plasma is calculated using degradation of each component in the media. Plasma protein binding can either be measured using a standardized in vitro method or it can be estimated using an in silico method. The distribution of each component in various parts of the body is estimated using an in silico method. The rate of nitric oxide release is estimated using an in vitro endothelial cell model. The time course of prodrug, its active metabolites and nitric oxide can be simulated in human and animal using this physiologically based pharmacokinetic/pharmacodynamic model provided that the corresponding in vitro and in silico data are used as inputs.
The selection of in vitro tests is designed to provide parameters for the above mentioned model. The use of an inappropriate test would result in wrong predictions. For example, Knaus et al. (2005) used guinea pig serum and porcine esterases to hydrolyze their O^2-substituted diazeniumdiolate derivatives of ASPIRIN, as disclosed in U.S. Ser. No. 60/681,842. These tests provided very little information in terms of in vivo human NO-NSAID metabolism rate and the extent to which metabolic conversion to NO donor and NSAID occurred. […] The half-life values were less than one minute. Based on these observations, it has become apparent that prior to entering the systemic circulation, it is likely that the NO-NSAID would have been hydrolyzed in the enterocytes and little or no NO-NSAID would have been detected in the blood stream. Furthermore, the release of NO will commence immediately once the NO donor is detached from the NSAID.
Representative in vitro tests or in silico estimates include: (a) pKa estimation or measurement; (b) Log P measurement or in silico estimation; (c) Solubility in various physiological fluids; (d) Permeability. Caco-2 and/or NOVOKIN's proprietary animal and human cell lines can be used to obtain this parameter; (e) Metabolic rate in the intestine and liver. Human or animal intestinal microsomes, S9 fraction, and cytosol can be used for this purpose. Human or animal hepatocytes, liver microsomes, S9 fraction, and cytosol can also be used; (f) Hydrolysis in human or animal plasma; (g) Serum or plasma protein binding. It can be measured in vitro or estimated in silico; (h) The rate of NO release; (i) Existing pharmacokinetic and pharmacodynamic data of NSAID or a biocompatible agent; (j) Existing NO release rate of known diazeniumdiolate if applicable; (k) Stability in gastric and intestinal environment; and (l) In silico volume of distribution estimation.
Whenever in vitro estimate is attainable, the in vitro results will be used, for example, plasma protein binding. Methods reported by Bowalgaha & Miners (2001), Martignoni et al. (2006), Tong et al. (2001) and Thulesen et al. (1999) were used for in vitro and in vivo scale-up for clearance in the intestine, absorption rate constant and hepatic clearance. The simulation begins with no material in all compartments except for the initial bolus in one compartment (typically the stomach compartment). The simulation then estimates the changing distribution of the material with time.

[2] = in vitro; Knaus et al., 2005; cited from earlier work
[3] = Hydrolysis in human plasma; format: in vitro ADME
Source text: as §1, with “The time course of prodrug, its active metabolites and nitric oxide can be simulated in human and animal using this physiologically based pharmacokinetic/pharmacodynamic model provided that the corresponding in vitro and in silico data are used as inputs.” left out

[4] = Plasma NAPROXEN AUC0-6h after oral dosing; format: in vivo, rat; details: male Wistar rats
Protocol: Table 1 is a summary of the protocol for a study which was conducted in male Wistar rats weighing 275-300 grams. The animals were allowed to acclimatize for at least five days prior to the commencement of the study. The study protocol was approved by the local animal ethics committee.

| SMILES | intestinal molar percent conversion to Naproxen [1] [%] | intestinal microsomal activity [1] [mL/min/organ] | NO generating capacity relative to AZD 3582 [2] [times] | plasma decay rate constant [3] [min⁻¹] | AUC0-6h of NAPROXEN compared with parent drug (in words) [4] |
| --- | --- | --- | --- | --- | --- |
| COc1ccc2cc(C(C)C(=O)OCON=[N+]([O-])N3CCCC3)ccc2c1 (stereo not drawn) [PYRO-NO-NAP, pyrrolidino-diazeniumdiolate-naproxen] | 87 | 188 | 13 | – | – |
| COc1ccc2cc([C@H](C)C(=O)OCCCCO[N+](=O)[O-])ccc2c1 [AZD 3582] | – | 554 | – | 1.0 | much lower than for NAPROXEN parent drug |
